What was measured:
[1] = target: T1, Prx4 (Homo sapiens, UniProt Q13162); assay: redox blotting, estimated rate constant at […] °C; format: biochemical
T1 construct: gene PRDX4; His-tagged wild type human Prx4
T1 sequence (Q13162 38-271): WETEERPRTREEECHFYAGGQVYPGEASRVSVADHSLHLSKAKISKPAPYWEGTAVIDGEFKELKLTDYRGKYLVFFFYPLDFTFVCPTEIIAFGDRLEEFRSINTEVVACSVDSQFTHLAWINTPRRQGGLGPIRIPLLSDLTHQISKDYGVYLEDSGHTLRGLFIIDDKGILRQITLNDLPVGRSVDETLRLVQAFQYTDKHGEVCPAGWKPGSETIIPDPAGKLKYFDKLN

[2] = target: T2, GPx4 (Rattus norvegicus, UniProt P36970); assay: coupled NADPH oxidation assay, apparent second-order rate constant; format: biochemical
T2 construct: GPx4 isolated from rat testis mitochondria
T2 sequence (P36970 28-197): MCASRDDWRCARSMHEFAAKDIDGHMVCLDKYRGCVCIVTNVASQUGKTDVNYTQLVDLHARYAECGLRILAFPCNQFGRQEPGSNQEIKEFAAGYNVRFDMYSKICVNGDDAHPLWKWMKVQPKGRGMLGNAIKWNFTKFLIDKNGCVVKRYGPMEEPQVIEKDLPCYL

[3] = target: T3, PKG1α (Homo sapiens, UniProt Q13976); assay: oxidative dimerization of purified PKG1α, non-reducing SDS-PAGE; format: biochemical
T3 construct: gene PRKG1; purified recombinant PKG1α, His-tag cleaved
T3 sequence (Q13976 2-671): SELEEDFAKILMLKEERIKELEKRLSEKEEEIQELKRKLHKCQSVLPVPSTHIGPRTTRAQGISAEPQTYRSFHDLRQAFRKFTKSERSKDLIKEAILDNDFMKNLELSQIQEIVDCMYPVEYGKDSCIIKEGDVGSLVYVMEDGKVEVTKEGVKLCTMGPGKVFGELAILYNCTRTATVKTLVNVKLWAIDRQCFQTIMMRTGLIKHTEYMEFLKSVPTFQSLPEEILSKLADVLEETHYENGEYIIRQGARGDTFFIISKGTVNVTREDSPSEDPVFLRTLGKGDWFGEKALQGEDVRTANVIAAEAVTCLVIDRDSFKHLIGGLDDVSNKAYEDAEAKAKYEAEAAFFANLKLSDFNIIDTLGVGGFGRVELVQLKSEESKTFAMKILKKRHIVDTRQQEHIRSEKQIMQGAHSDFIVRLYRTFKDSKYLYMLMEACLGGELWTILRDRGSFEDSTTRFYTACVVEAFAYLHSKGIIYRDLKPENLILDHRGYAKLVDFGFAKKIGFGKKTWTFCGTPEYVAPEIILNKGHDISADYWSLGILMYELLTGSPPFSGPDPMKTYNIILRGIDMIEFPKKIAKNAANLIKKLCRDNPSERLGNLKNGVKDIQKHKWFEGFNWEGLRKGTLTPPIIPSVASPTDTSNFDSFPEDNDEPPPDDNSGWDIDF

[4] = target: the molecule itself; assay: non-reducing SDS-PAGE (disulfide-linked dimer); purified PKG1α (3.3 uM) with 200 uM cis-WOOH or H2O2, 5 min, 25 °C, 25 mM phosphate pH 7.0, 200 uM TCEP; stopped with 125 mM maleimide; non-reducing 4-12% SDS-PAGE, silver stain
[5] = target: the molecule itself; assay: non-reducing SDS-PAGE (disulfide-linked dimer, redox blotting); purified pre-reduced Prx (20 uM) incubated with cis-WOOH, trans-WOOH (1-20 uM) or H2O2 (2.5-20 uM) for 10 s at 5 °C in 50 mM sodium phosphate pH 7.4 with 100 uM DTPA; NEM 50 mM; non-reducing 4-12% SDS-PAGE, silver stain; monomer and dimer bands

Molecule: O=C(O)[C@@H]1C[C@@]2(OO)c3ccccc3N[C@H]2N1 [cis-WOOH]
- redox blotting, estimated rate constant at 5 °C [1]: ~ 10^3 M^−1 s^−1
- coupled NADPH oxidation assay, apparent second-order rate constant [2]: 1e+06 M⁻¹ s⁻¹
- oxidative dimerization of purified PKG1α, non-reducing SDS-PAGE [3]: cis-WOOH caused greater PKG1α dimerization than the same concentrations of H2O2

Molecule: O=C(O)[C@@H]1C[C@]2(OO)c3ccccc3N[C@@H]2N1 [trans-WOOH]
- redox blotting, estimated rate constant at 5 °C [1]: ~ 10^3 M^−1 s^−1
- coupled NADPH oxidation assay, apparent second-order rate constant [2]: 1.6e+06 M⁻¹ s⁻¹

B1: purified recombinant human protein kinase G 1α (PKG1α) (enzyme, UniProt Q13976 1-671, looked up)
chain: MSELEEDFAKILMLKEERIKELEKRLSEKEEEIQELKRKLHKCQSVLPVPSTHIGPRTTRAQGISAEPQTYRSFHDLRQAFRKFTKSERSKDLIKEAILDNDFMKNLELSQIQEIVDCMYPVEYGKDSCIIKEGDVGSLVYVMEDGKVEVTKEGVKLCTMGPGKVFGELAILYNCTRTATVKTLVNVKLWAIDRQCFQTIMMRTGLIKHTEYMEFLKSVPTFQSLPEEILSKLADVLEETHYENGEYIIRQGARGDTFFIISKGTVNVTREDSPSEDPVFLRTLGKGDWFGEKALQGEDVRTANVIAAEAVTCLVIDRDSFKHLIGGLDDVSNKAYEDAEAKAKYEAEAAFFANLKLSDFNIIDTLGVGGFGRVELVQLKSEESKTFAMKILKKRHIVDTRQQEHIRSEKQIMQGAHSDFIVRLYRTFKDSKYLYMLMEACLGGELWTILRDRGSFEDSTTRFYTACVVEAFAYLHSKGIIYRDLKPENLILDHRGYAKLVDFGFAKKIGFGKKTWTFCGTPEYVAPEIILNKGHDISADYWSLGILMYELLTGSPPFSGPDPMKTYNIILRGIDMIEFPKKIAKNAANLIKKLCRDNPSERLGNLKNGVKDIQKHKWFEGFNWEGLRKGTLTPPIIPSVASPTDTSNFDSFPEDNDEPPPDDNSGWDIDF
notes: human cGMP-dependent protein kinase 1, isoform alpha (PKG1α); also called PK1α; source: FreeStyle 293-F cells, transfected, purified (Ni-NTA, HiTrap Q), His-tag cleaved with TEV protease
- binding result [4]: binds

B2: His-tagged wild type human Prx2 (peroxiredoxin 2) (enzyme, UniProt P32119 1-198, looked up)
chain: MASGNARIGKPAPDFKATAVVDGAFKEVKLSDYKGKYVVLFFYPLDFTFVCPTEIIAFSNRAEDFRKLGCEVLGVSVDSQFTHLAWINTPRKEGGLGPLNIPLLADVTRRLSEDYGVLKTDEGIAYRGLFIIDGKGVLRQITVNDLPVGRSVDEALRLVQAFQYTDEHGEVCPAGWKPGSDTIKPNVDDSKEYFSKHN
notes: human peroxiredoxin 2 (Prx2), wild type; also called His-tagged Prx2; pre-reduced His-tagged Prx2; source: E. coli BL21 (DE3), pET-28a, purified (Ni-NTA)
- binding result [5]: binds

B3: untagged human Prx2 (His-tag cleaved with Factor Xa) (enzyme, UniProt P32119 1-198, looked up)
chain: B2 chain
notes: human peroxiredoxin 2 (Prx2), wild type; also called untagged Prx2; source: E. coli BL21 (DE3), pET-28a, purified (Ni-NTA), tag cleaved with Factor Xa
- binding result [5]: binds

— article PMC8595612, “Hydrogen peroxide signaling via its transformation to a stereospecific alkyl hydroperoxide that escapes reductive inactivation” (Nature Communications, 2021)
